# Test results from US6696476B2, “Pyranoindazoles and their use for the treatment of glaucoma” (Alcon, Inc., priority 2001, dated 2004).
# Structures can show the parent of a compound that is named as a salt. Where two headings read alike, the source gives them in different places.
# Experiments:
# 5-HT2A Receptor [1] = target: T1, 5-HT2A Receptor (Rattus norvegicus, UniProt P14842); experiment: 5-HT2 Receptor Binding Assay ([125I]DOI competition); design: species or system rat or human; conditions: 5-HT2A receptor binding; [125I]DOI displacement, cerebral cortex homogenates
# Method: Aliquots of post mortem rat or human cerebral cortex homogenates (400 μL) dispersed in 50 mM Tris HCl buffer (pH 7.4) are incubated with [^125I]DOI (80 pM final) in the absence or presence of methiothepin (10 μM final) to define total and non-specific binding, respectively, in a total volume of 0.5 mL. The assay mixture is incubated for 1 hour at 23° C. in polypropylene tubes and the assays terminated by rapid vacuum filtration over Whatman GF/B glass fiber filters previously soaked in 0.3% polyethyleneimine using ice-cold buffer. Test compounds (at different concentrations) are substituted for methiothepin. Filter-bound radioactivity is determined by scintillation spectrometry on a beta counter. The data are analyzed using a non-linear, iterative curve-fitting computer program [Trends Pharmacol. Sci., 16, 413 (1995)] to determine the compound affinity parameter. The concentration of the compound needed to inhibit the [^125I]DOI binding by 50% of the maximum is termed the IC50 or Ki value.
# 5-HT2A Receptor [2] = target: T1, 5-HT2A Receptor; experiment: 5-HT2 Functional Assay: [Ca2+]i Mobilization (FLIPR, A7r5 cells); type: cell-based; design: endogenous in cells; host or cells: A7r5 rat vascular smooth muscle cells; conditions: for EC50: [Ca2+]i mobilization, A7r5 rat vascular smooth muscle cells; for Emax: read-out: Efficacy (Emax, %)
# Method: The receptor-mediated mobilization on intracellular calcium ([Ca^2+]i) was studied using the Fluorescence Imaging Plate Reader (FLIPR) instrument. Rat vascular smooth muscle cells, A7r5, were grown in a normal media of DMEM/10% FBS and 10 μg/mL gentamycin. Confluent cell monolayers were trypsinized, pelleted, and re-suspended in normal media. Cells were seeded in a 50 μL volume at a density of 20,000 cells/well in a black wall, 96-well tissue culture plate and grown for 2 days.
# On the day of the experiment, one vial of FLIPR Calcium Assay Kit dye was re-suspended in 50 mL of a FLIPR buffer consisting of Hank's Balanced Salt Solution (HBSS), 20 mM HEPES, and 2.5 mM probenecid, pH 7.4. Cells were loaded with the calcium-sensitive dye by addition of an equal volume (50 μL) to each well of the 96-well plate and incubated with dye for 1 h at 23° C.
# Compounds were diluted 1:50 in 20% DMSO/20% Ethanol. For “hit” screening, compounds were further diluted 1:10 in FLIPR buffer and tested at a final concentration of 10 μM.
# The compound plate and cell plate were placed in the FLIPR instrument. At the beginning of an experimental run, a signal test was performed to check the basal fluorescence signal from the dye-loaded cells and the uniformity of the signal across the plate. The basal fluorescence was adjusted between 8000-12000 counts by modifying the exposure time, the camera F-stop, or the laser power. Instrument settings for a typical assay were the following: laser power 0.3-0.6 W, camera F-stop F/2, and exposure time 0.4 sec. An aliquot (25 μL) of the test compound was added to the existing 100 μL dye-loaded cells at a dispensing speed of 50 μL/sec. Fluorescence data were collected in real-time at 1.0 sec intervals for the first 60 secs and at 6.0 sec intervals for an additional 120 secs.
# IOP [3] = conditions: monkey; attributed to α1A receptor activity; cited from earlier work
# intraocular pressure = experiment: IOP Response in Conscious Cynomolgus Monkeys; type: in vivo
# IOP [4] = conditions: rabbits; cited from earlier work
# [5] = percentage of a maximum 5-HT-induced response, A7r5 cells
# [6] = 3 hours after dose, dose 300 μg
# [7] = 6 hours after dose, dose 300 μg
# T1 sequence (P14842 whole entry): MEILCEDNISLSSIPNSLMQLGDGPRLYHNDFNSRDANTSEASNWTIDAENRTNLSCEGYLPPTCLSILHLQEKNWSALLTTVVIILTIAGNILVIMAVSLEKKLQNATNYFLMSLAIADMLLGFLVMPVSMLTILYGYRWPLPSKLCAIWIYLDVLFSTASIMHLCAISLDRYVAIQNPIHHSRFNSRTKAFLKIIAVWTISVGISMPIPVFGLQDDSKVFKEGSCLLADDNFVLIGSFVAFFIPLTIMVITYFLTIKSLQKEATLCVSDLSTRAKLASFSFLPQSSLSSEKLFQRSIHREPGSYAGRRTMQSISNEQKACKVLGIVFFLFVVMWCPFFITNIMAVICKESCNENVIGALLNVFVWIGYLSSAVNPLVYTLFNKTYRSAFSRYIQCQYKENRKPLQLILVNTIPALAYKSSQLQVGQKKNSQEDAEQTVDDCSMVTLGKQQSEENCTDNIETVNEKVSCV
compound,measurement,setting,value
CC(N)Cn1ncc2ccc3c(c21)CC(O)CO3 (stereo not drawn),melting point,,124 to 125 °C
C[C@H](N)Cn1ncc2ccc3c(c21)C(N)C(O)CO3 (stereo partly drawn),melting point,,84 to 88 °C
COC1c2c(ccc3cnn(C[C@H](C)N)c23)OCC1O (stereo partly drawn),melting point,,105 to 108 °C
C[C@@H](N)Cn1ncc2ccc3c(c21)CC(O)CO3.Cl (stereo partly drawn),melting point,,82 to 86 °C
"C[C@H](N)Cc1n[nH]c2ccc3c(c12)CCCO3 (as salt: hydrochloride) [Example 17, (S)-1-Methyl-2-(3,7,8,9-tetrahydro-pyrano[3,2-e]indazol-1-yl)-ethylamine]",melting point,,235 to 240 °C
"C[C@H](N)Cn1ncc2ccc3c(c21)[C@H](O)[C@H](O)CO3 (relative stereo) [Example 7, (8R*,9S*)-1-((S)-2-Amino-propyl)-1,7,8,9-tetrahydro-pyrano[2,3-g]indazole-8,9-diol]",melting point,,115 to 117 °C
same,IC50,5-HT2A Receptor [1],3.73 nM
same,EC50,5-HT2A Receptor [2],194 nM
same,Emax,5-HT2A Receptor [2]; [5],85%
COc1ccccc1N1CCN(CCCNc2c(C)c(=O)n(C)c(=O)n2C)CC1 [5-methylurapidil],effect on IOP,IOP [3],lowers IOP
"COc1cc(C[C@@H](C)N)c(OC)cc1I [(R)-DOI, reference compound]",Percent IOP Reduction ± SEM,"intraocular pressure; 1 hour after dose, dose 100 μg",11.0 ± 4.98%
same,Percent IOP Reduction ± SEM,"intraocular pressure; 3 hours after dose, dose 100 μg",25.3 ± 2.97%
same,Percent IOP Reduction ± SEM,"intraocular pressure; 6 hours after dose, dose 100 μg",34.4 ± 4.98%
"C[C@H](N)Cn1ncc2ccc3c(c21)CC(O)CO3 (stereo partly drawn) [Example 3, 1-((S)-2-Aminopropyl)-1,7,8,9-tetrahydro-pyrano[2,3-g]indazol-8-ol]",melting point,,46 to 51 °C
same,IC50,5-HT2A Receptor [1],2.19 nM
same,EC50,5-HT2A Receptor [2],145 nM
same,Emax,5-HT2A Receptor [2]; [5],85%
"C[C@H](N)Cn1ncc2ccc3c(c21)C[C@@H](O)CO3 [Example 4, (R)-1-((S)-2-Aminopropyl)-1,7,8,9-tetrahydro-pyrano[2,3-g]indazol-8-ol]",Percent IOP Reduction ± SEM,"intraocular pressure; 1 hour after dose, dose 300 μg",7.68 ± 2.91%
same,Percent IOP Reduction ± SEM,intraocular pressure; [6],25.8 ± 3.53%
same,Percent IOP Reduction ± SEM,intraocular pressure; [7],30.2 ± 4.48%
same,melting point,,126 to 128 °C
same,IC50,5-HT2A Receptor [1],2.25 nM
same,EC50,5-HT2A Receptor [2],65.3 nM
same,Emax,5-HT2A Receptor [2]; [5],92%
"C[C@H](N)Cn1ncc2ccc3c(c21)C[C@H](O)CO3 [Example 5, (S)-1-((S)-2-Aminopropyl)-1,7,8,9-tetrahydro-pyrano[2,3-g]indazol-8-ol]",Percent IOP Reduction ± SEM,"intraocular pressure; 1 hour after dose, dose 300 μg",7.9 ± 4.06%
same,Percent IOP Reduction ± SEM,intraocular pressure; [6],17.3 ± 3.87%
same,Percent IOP Reduction ± SEM,intraocular pressure; [7],25.1 ± 4.76%
same,IC50,5-HT2A Receptor [1],3.44 nM
same,EC50,5-HT2A Receptor [2],226 nM
same,Emax,5-HT2A Receptor [2]; [5],70%
"NCCc1c[nH]c2ccc(O)cc12 [Example 5-HT, 5-Hyroxytryptamine, reference compound]","Efficacy (Emax, %)",5-HT2A Receptor [2]; [5],101%
"C[C@H](N)Cn1ncc2ccc3c(c21)C[C@@H](N)CO3.Cl.Cl.Cl [Example 6, (R)-1-((S)-2-Amino-propyl)-1,7,8,9-tetrahydro-pyrano[2,3-g]indazol-8-ylamine Trihydrochloride]",melting point,,> 300 °C
same,IC50,5-HT2A Receptor [1],6.56 nM
same,EC50,5-HT2A Receptor [2],175 nM
same,Emax,5-HT2A Receptor [2]; [5],87%
"C[C@H](N)Cn1ncc2ccc3c(c21)CCCO3.Cl.Cl [Example 8, (S)-2-(8,9-Dihydro-7H-pyrano[2,3-g]indazol-1-yl)-1-methyl-ethylamine Dihydrochloride]",melting point,,95 to 98 °C
same,IC50,5-HT2A Receptor [1],0.686 nM
same,EC50,5-HT2A Receptor [2],90 nM
same,Emax,5-HT2A Receptor [2]; [5],85%
"CCCN(CCC)C1CCc2cccc(O)c2C1 (stereo not drawn) [Example 8-OH-DPAT, 8-hydroxydipropylaminotetralin]",effect on IOP,IOP [4],reduces IOP
"C[C@H](N)Cn1ncc2ccc3c(c21)C=CCO3 [Example 9, (S)-1-Methyl-2-(7H-pyrano[2,3-g]indazol-1-yl)-ethylamine]",IC50,5-HT2A Receptor [1],0.274 nM
same,EC50,5-HT2A Receptor [2],41.4 nM
same,Emax,5-HT2A Receptor [2]; [5],91%
"C[C@H](N)Cn1ncc2ccc3c(c21)C[C@@H](OCCO)CO3.Cl.Cl [Example 13, 2-[(R)-1-((S)-2-Aminopropyl)-1,7,8,9-tetrahydro-pyrano[2,3-g]indazol-8-yloxy]-ethanol Dihydrochloride]",Percent IOP Reduction ± SEM,"intraocular pressure; 1 hour after dose, dose 300 μg",8.3 ± 2.64%
same,Percent IOP Reduction ± SEM,intraocular pressure; [6],21.4 ± 4.18%
same,Percent IOP Reduction ± SEM,intraocular pressure; [7],28.4 ± 3.36%
same,melting point,,> 100 °C
same,IC50,5-HT2A Receptor [1],3.38 nM
same,EC50,5-HT2A Receptor [2],121 nM
same,Emax,5-HT2A Receptor [2]; [5],87%
"CC(=O)NCCO[C@H]1COc2ccc3cnn(C[C@H](C)N)c3c2C1 [Example 14, N-[2-[(R)-1-((S)-2-Aminopropyl)-1,7,8,9-tetrahydropyrano[2,3-g]indazol-8-yloxy]-ethyl]acetamide]",melting point,,165 to 166 °C
same,IC50,5-HT2A Receptor [1],5.34 nM
same,EC50,5-HT2A Receptor [2],202 nM
same,Emax,5-HT2A Receptor [2]; [5],86%
"C[C@H](N)Cn1ncc2ccc3c(c21)C[C@@H](OCC(N)=O)CO3 [Example 15, 2-[(R)-1-((S)-2-Aminopropyl)-1,7,8,9-tetrahydro-pyrano[2,3-g]indazol-8-yloxy]-acetamide]",IC50,5-HT2A Receptor [1],2.87 nM
same,EC50,5-HT2A Receptor [2],178 nM
same,Emax,5-HT2A Receptor [2]; [5],95%
"C[C@H](N)Cn1ncc2ccc3c(c21)C[C@@H](OCC(=O)OC(C)(C)C)CO3 [Example 16, [(R)-1-((S)-2-Amino-propyl)-1,7,8,9-tetrahydro-pyrano[2,3-g]indazol-8-yloxy]acetic Acid Tert-butyl Ester Dihydrochloride]",IC50,5-HT2A Receptor [1],1.94 nM
same,EC50,5-HT2A Receptor [2],424 nM
same,Emax,5-HT2A Receptor [2]; [5],73%
"C[C@H](N)Cc1n[nH]c2ccc3c(c12)CCCO3 [Example 17, (S)-1-Methyl-2-(3,7,8,9-tetrahydro-pyrano[3,2-e]indazol-1-yl)-ethylamine]",IC50,5-HT2A Receptor [1],0.79 nM
same,EC50,5-HT2A Receptor [2],154 nM
same,Emax,5-HT2A Receptor [2]; [5],88%
